Source: paper PMC4737155 (Nucleic Acids Research, 2015)

Key:
Assay in all cases: biochemical
SaTrm10 [1] = biological target: T1, SaTrm10 (Sulfolobus acidocaldarius, UniProt Q4J894)
T1 sequence (Q4J894 1-292): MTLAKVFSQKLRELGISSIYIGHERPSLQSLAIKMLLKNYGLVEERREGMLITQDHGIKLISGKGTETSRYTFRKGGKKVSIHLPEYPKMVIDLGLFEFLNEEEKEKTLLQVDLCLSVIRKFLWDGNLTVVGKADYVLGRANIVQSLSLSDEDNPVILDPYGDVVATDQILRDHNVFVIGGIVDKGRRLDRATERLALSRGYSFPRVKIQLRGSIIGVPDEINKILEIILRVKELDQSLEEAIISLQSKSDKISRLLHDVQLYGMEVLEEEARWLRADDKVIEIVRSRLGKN

SaTrm10 [2] = biological target: SaTrm10 (Sulfolobus acidocaldarius, UniProt Q4J894, D220N)
Sequence of SaTrm10 (Sulfolobus acidocaldarius, UniProt Q4J894, D220N) (Q4J894 whole entry D220N): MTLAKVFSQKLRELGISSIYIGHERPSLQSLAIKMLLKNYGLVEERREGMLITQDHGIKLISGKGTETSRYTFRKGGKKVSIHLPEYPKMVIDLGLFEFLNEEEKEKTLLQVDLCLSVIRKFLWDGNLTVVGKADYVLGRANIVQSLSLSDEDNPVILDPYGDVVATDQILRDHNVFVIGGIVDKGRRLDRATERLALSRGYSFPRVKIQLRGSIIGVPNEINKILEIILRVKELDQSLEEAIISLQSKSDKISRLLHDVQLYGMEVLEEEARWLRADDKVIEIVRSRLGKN

SaTrm10 [3] = biological target: SaTrm10 (Sulfolobus acidocaldarius, UniProt Q4J894, D184N)
Sequence of SaTrm10 (Sulfolobus acidocaldarius, UniProt Q4J894, D184N) (Q4J894 whole entry D184N): as the sequence (Q4J894 whole entry D220N) above, with D184N, N220D counted along it

Kd (SaTrm10 [1]): 33 ± 4 µM
Kd (SaTrm10 [2]): 47 ± 8 µM
Kd (SaTrm10 [3]): 28 ± 5 µM
SMILES: C[S+](CC[C@H](N)C(=O)O)C[C@H]1O[C@@H](n2cnc3c(N)ncnc32)[C@H](O)[C@@H]1O (stereo partly drawn) [S-adenosyl methionine]
